Molecular target: kappa opioid receptor (OPRK1) (Homo sapiens (Human), UniProt P41145)
Experiment: OPRK1 antagonist assay (b-arrestin-2-TEV / b-lactamase reporter cell line, EC80 U-50488 challenge)
Format: cell-based
Conditions: read-out: IC50 nM (% inhib if other than 50%); antagonist mode vs EC80 U-50488; NA = not active at concentrations up to 10 μM

Chain of kappa opioid receptor (OPRK1) (P41145 whole entry): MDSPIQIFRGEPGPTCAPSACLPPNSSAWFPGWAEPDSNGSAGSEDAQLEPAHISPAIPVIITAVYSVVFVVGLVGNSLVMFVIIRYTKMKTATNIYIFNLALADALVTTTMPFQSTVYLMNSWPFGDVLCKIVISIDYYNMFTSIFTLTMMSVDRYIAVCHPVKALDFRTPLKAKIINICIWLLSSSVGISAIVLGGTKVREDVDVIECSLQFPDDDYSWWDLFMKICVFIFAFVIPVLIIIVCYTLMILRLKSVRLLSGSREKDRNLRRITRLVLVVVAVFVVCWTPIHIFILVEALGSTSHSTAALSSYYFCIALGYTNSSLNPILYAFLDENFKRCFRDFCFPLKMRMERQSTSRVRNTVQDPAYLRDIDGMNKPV

| Structure (SMILES) | IC50 [nM] |
| --- | --- |
| CC(C)OC(=O)c1cc(Br)cnc1N1CC[C@@H](NC2CCCCC2)[C@H](O)C1 [compound 135] | 1630 |
| Cc1noc(-c2cc(Br)cnc2N2CC[C@@H](NC3CCCCC3)[C@H](O)C2)n1 [compound 136] | 49 |
| CCc1noc(-c2cc(Br)cnc2N2CC[C@@H](NC3CCCCC3)[C@H](O)C2)n1 [compound 137] | 1600 |
| CN(C)C(=O)c1cc(Br)cnc1N1CC[C@@H](NC2CCCCC2)[C@H](O)C1 [compound 138] | 3200 |
| CCN(CC)C(=O)c1cc(Br)cnc1N1CC[C@@H](NC2CCCCC2)[C@H](O)C1 [compound 139] | 4800 |
| COC1CN(c2ncc(Br)cc2-c2nc(C)no2)CCC1NC1CCCCC1 (stereo not drawn) [compound 143] | 100 |
| CC(=O)c1cc(Br)cnc1N1CCC(NC2CCCCC2)C(CO)C1 (stereo not drawn) [compound 144] | 4800 |
| Cc1noc(-c2cc(Br)cnc2N2CCC(NC3CCCCC3)C(CO)C2)n1 (stereo not drawn) [compound 145] | 117 |
| CCOC(=O)c1cc(Br)cnc1N1CCC(NC2CCCCC2)C(OC)C1 (stereo not drawn) [compound 146] | 85 |
| COC(=O)c1cccnc1N1CC[C@@H](NC2CCCCC2)[C@H](O)C1 [compound 148] | 5800 |
| COC(=O)c1cccnc1N1CCC(NC2CCCCC2)C(CO)C1 (stereo not drawn) [compound 149] | 5400 |
| O[C@@H]1CN(c2ncc(Br)cc2-c2nc(C3CC3)no2)CC[C@H]1NC1CCCCC1 [compound 150] | 9100 |
| OCC1CN(c2ncc(Br)cc2-c2nc(C3CC3)no2)CCC1NC1CCCCC1 (stereo not drawn) [compound 151] | 2100 |
| Cc1cnc(N2CCC(NC3CCCCC3)C(CO)C2)c(-c2nc(C)no2)c1 (stereo not drawn) [compound 152] | 30 |
| CCOC(=O)c1cc(C)c(C)nc1N1CC[C@@H](NC2CCCCC2)[C@H](O)C1 [compound 153] | 191 |
| Cc1noc(-c2cc(C)c(C)nc2N2CC[C@@H](NC3CCCCC3)[C@H](O)C2)n1 [compound 154] | 146 |
| Cc1noc(-c2cc(C3CC3)cnc2N2CC[C@@H](NC3CCCCC3)[C@H](O)C2)n1 [compound 155] | 1300 |
| CCc1cnc(N2CC[C@@H](NC3CCCCC3)[C@H](O)C2)c(-c2nc(C)no2)c1 [compound 156] | 1000 |
| COC(=O)c1cc2ccccc2nc1N1CCC(NC2CCCCC2)C(CO)C1 (stereo not drawn) [compound 157] | 37 |
| COC(=O)c1cc2ccccc2nc1N1CCC(NC2CCCCC2)C(OC)C1 (stereo not drawn) [compound 158] | 431 |
| CCOC(=O)c1cc(C)c(C)nc1N1CCC(NC2CCCCC2)C(CO)C1 (stereo not drawn) [compound 159] | 35 |

| Structure (SMILES) | IC50 [nM] |
| --- | --- |
| COC(=O)c1cc2ccccc2nc1N1CC[C@@H](NC2CCCCC2)[C@H](O)C1 [compound 160] | 209 |
| COC(=O)c1cc(C)c(C)nc1N1CC[C@@H](NC2CCCCC2)[C@H](O)C1 [compound 161] | 157 |
| COC(=O)c1cc(C)c(C)nc1N1CCC(NC2CCCCC2)C(CO)C1 (stereo not drawn) [compound 162] | 1400 |
| COC(=O)c1cc(C)c(C)nc1N1CCC(NC2CCCCC2)C(OC)C1 (stereo not drawn) [compound 163] | 915 |
| Cc1noc(-c2cc(C)c(C)nc2N2CCC(NC3CCCCC3)C(CO)C2)n1 (stereo not drawn) [compound 164] | 62 |
| COC1CN(c2nc(C)c(C)cc2-c2nc(C)no2)CCC1NC1CCCCC1 (stereo not drawn) [compound 165] | 19 |
| COC(=O)c1cc(C)nnc1N1CC[C@@H](NC2CCCCC2)[C@H](O)C1 [compound 166] | 32 |
| CCc1noc(-c2cc(C)cnc2N2CC[C@@H](NC3CCCCC3)[C@H](O)C2)n1 [compound 168] | 7000 |
| Cc1cnc(N2CC[C@@H](NC3CCCCC3)[C@H](O)C2)c(-c2ncco2)c1 [compound 169] | 2500 |
| CCc1noc(-c2cc(C)cnc2N2CCC(NC3CCCCC3)C(CO)C2)n1 (stereo not drawn) [compound 171] | 1100 |
| Cc1noc(-c2cc3ccccc3nc2N2CC[C@@H](NC3CCCCC3)[C@H](O)C2)n1 [compound 172] | 22 |
| Cc1noc(-c2cc(C(F)(F)F)cnc2N2CC[C@@H](NC3CCCCC3)[C@H](O)C2)n1 [compound 173] | 1200 |
| COC1CN(c2ncc(C(F)(F)F)cc2-c2nc(C)no2)CCC1NC1CCCCC1 (stereo not drawn) [compound 174] | 180 |
| Cc1cc(-c2nc(C)no2)c(N2CC[C@@H](NC3CCCCC3)[C@H](O)C2)nn1 [compound 175] | 46 |
| COC1CN(c2nc3ccccc3cc2-c2nc(C)no2)CCC1NC1CCCCC1 (stereo not drawn) [compound 176] | 28 |
| Cc1noc(-c2cnc(N3CC[C@@H](NC4CCCCC4)[C@H](O)C3)c(C)c2)n1 [compound 177] | > 20 |
| COC1CN(c2nc(C)c(C)cc2-c2nc(C)no2)CCC1NC1CCCCC1 (stereo not drawn) [compound 178] | 483 |
| COC1CN(c2ncc(C)cc2-c2nc(C)no2)CCC1NC1CCCCC1 (stereo not drawn) [compound 179] | 253 |
| Cc1cc(-c2nc(C)no2)c(N2CCC(NC3CCCCC3)C(CO)C2)nn1 (stereo not drawn) [compound 180] | 7 |
| CCC1(CO)CN(c2ncc(C)cc2-c2nc(C)no2)CCC1NC1CCCCC1 (stereo not drawn) [compound 182] | 76 |
| CCC1CN(c2ncc(C)cc2-c2nc(C)no2)CCC1NC1CCCCC1 (stereo not drawn) [compound 183] | 280 |

| Structure (SMILES) | IC50 [nM] |
| --- | --- |
| Cc1noc(-c2cc3ccccc3nc2N2CCC(NC3CCCCC3)C(CO)C2)n1 (stereo not drawn) [compound 186] | 5 |
| Cc1noc(-c2cc(C(F)(F)F)cnc2N2CCC(NC3CCCCC3)C(CO)C2)n1 (stereo not drawn) [compound 187] | 341 |
| Cc1noc(-c2nc3ccccc3nc2N2CC[C@@H](NC3CCCCC3)[C@H](O)C2)n1 [compound 188] | 187 |
| Cc1noc(-c2nc3ccccc3nc2N2CCC(NC3CCCCC3)C(CO)C2)n1 (stereo not drawn) [compound 189] | 125 |
| COC1CN(c2nc3ccccc3nc2-c2nc(C)no2)CCC1NC1CCCCC1 (stereo not drawn) [compound 190] | 57 |
| Cc1noc(-c2cc3c(nc2N2CCC(NC4CCCCC4)C(CO)C2)CCCC3)n1 (stereo not drawn) [compound 191] | 420 |
| Cc1noc(-c2cc3ccccc3nc2N2CC[C@@H](NC3CCCCC3)[C@H](O)C2)n1 [compound 192] | 199 |
| COC1CN(c2nc3c(cc2-c2nc(C)no2)CCCC3)CCC1NC1CCCCC1 (stereo not drawn) [compound 193] | 729 |
| Cc1cnc(N2CCC(NC3CCCCC3)C(C)C2)c(-c2nc(C)no2)c1 (stereo not drawn) [compound 194] | 180 |
| Cc1cnc(N2CCC(NC3CCOCC3)C(CO)C2)c(-c2nc(C)no2)c1 (stereo not drawn) [compound 195] | 700 |
| COC1CCCCC1NC1CCN(c2ncc(C)cc2-c2nc(C)no2)CC1CO (stereo not drawn) [compound 196] | 414 |
| Cc1cnc(N2CCC(NC3CCCCCC3)C(CO)C2)c(-c2nc(C)no2)c1 (stereo not drawn) [compound 197] | 85 |
| Cc1noc(-c2cc3ccccc3nc2N2CCC(NC3CCOCC3)C(CO)C2)n1 (stereo not drawn) [compound 198] | 98 |
| COC1CCCCC1NC1CCN(c2nc3ccccc3cc2-c2nc(C)no2)CC1CO (stereo not drawn) [compound 199] | 59 |
| Cc1noc(-c2cc3ccccc3nc2N2CCC(NC3CCCCCC3)C(CO)C2)n1 (stereo not drawn) [compound 200] | 14 |
| Cc1cnc(N2CCC(NC3CCCC3)C(CO)C2)c(-c2nc(C)no2)c1 (stereo not drawn) [compound 201] | 116 |
| Cc1noc(-c2nc3ccccc3nc2N2CCC(NC3CCCC3)C(CO)C2)n1 (stereo not drawn) [compound 202] | 187 |
| Cc1cnc(N2CCC(NC3CCCCC3C)C(CO)C2)c(-c2nc(C)no2)c1 (stereo not drawn) [compound 203] | 132 |
| Cc1noc(-c2cc3ccccc3nc2N2CCC(NC3CCCCC3)C(F)C2)n1 (stereo not drawn) [compound 204] | 52 |
| Cc1noc(-c2cc3ccccc3nc2N2CCC(NC3CCCC3)C(CO)C2)n1 (stereo not drawn) [compound 205] | 17 |
| Cc1noc(-c2cc3ccccc3nc2N2CCC(NC3CCCCC3C)C(CO)C2)n1 (stereo not drawn) [compound 206] | 33 |

| Structure (SMILES) | IC50 [nM] |
| --- | --- |
| Cc1noc(-c2cc3c(nc2N2CC[C@@H](NC4CCCCC4)[C@H](O)C2)CCC3)n1 [compound 207] | 276 |
| CCC1(CO)CN(c2nc3ccccc3cc2-c2nc(C)no2)CCC1NC1CCCCC1 (stereo not drawn) [compound 208] | 76 |
| Cc1noc(-c2cc3ccccc3nc2N2CCC(NC3CCCCC3)CC2)n1 [compound 209] | 18 |
| COC1CN(c2nc3c(cc2-c2nc(C)no2)CCC3)CCC1NC1CCCCC1 (stereo not drawn) [compound 210] | 72 |
| Cc1noc(-c2cc3c(nc2N2CCC(NC4CCCCC4)C(CO)C2)CCC3)n1 (stereo not drawn) [compound 211] | 74 |
| Cc1noc(-c2cc3ccccc3nc2N2CCC(NC3CCCCC3)C2)n1 (stereo not drawn) [compound 212] | 267 |
| Cc1ccc2nc(N3CC[C@@H](NC4CCCCC4)[C@H](O)C3)c(-c3nc(C)no3)cc2c1 [compound 213] | 8.5 |
| COC1CN(c2nc3ccc(C)cc3cc2-c2nc(C)no2)CCC1NC1CCCCC1 (stereo not drawn) [compound 214] | 3 |
| Cc1ccc2nc(N3CCC(NC4CCCCC4)C(CO)C3)c(-c3nc(C)no3)cc2c1 (stereo not drawn) [compound 215] | 3 |
| Cc1cnc(N2CCC(NC3CCCCC3)C(CO)C2)c(C=O)c1 (stereo not drawn) [compound 216] | 4500 |
| Cc1cnc(N2CCC(NC3CCCCC3)C(CO)C2)c(-c2ncco2)c1 (stereo not drawn) [compound 217] | 361 |
| O[C@@H]1CN(c2nc3ccccc3cc2-c2ncco2)CC[C@H]1NC1CCCCC1 [compound 218] | 475 |
| Cc1ccc2nc(N3CCC(NC4CCCCC4)CC3)c(-c3nc(C)no3)cc2c1 [compound 219] | 3.5 |
| Cc1noc(-c2cc(C)c(C)nc2N2CCC(NC3CCCCC3)CC2)n1 [compound 221] | 24 |
| Cc1noc(-c2cc3ccccc3nc2N2CCC(CO)(NC3CCCCC3)CC2)n1 [compound 222] | 163 |
| Cc1noc(-c2cc(C)c(C)nc2N2CCC(NC3CCCC3)C(CO)C2)n1 (stereo not drawn) [compound 223] | 13 |
| Cc1noc(-c2cc(C)c(C)nc2N2CCC(NC3CCCCC3C)C(CO)C2)n1 (stereo not drawn) [compound 224] | 17 |
| COC1CN(c2nc3ccccc3cc2-c2ncco2)CCC1NC1CCCCC1 (stereo not drawn) [compound 225] | 70 |
| OCC1CN(c2nc3ccccc3cc2-c2ncco2)CCC1NC1CCCCC1 (stereo not drawn) [compound 226] | 107 |
| Cc1ccc2cc(-c3nc(C)no3)c(N3CC[C@@H](NC4CCCCC4)[C@H](O)C3)nc2c1 [compound 227] | 7 |
| COC1CN(c2nc3cc(C)ccc3cc2-c2nc(C)no2)CCC1NC1CCCCC1 (stereo not drawn) [compound 228] | 21 |
